Results as given in US5919940A, “Metalloproteinase inhibitors” (British Biotech Pharmaceuticals Limited, priority 1998, dated 1999).
Like-named read-outs stand apart in the source and are kept apart here.

Legend:
Collagenase = assay: Inhibition of collagenase (acetylated 14C collagen hydrolysis; Cawston and Barrett); format: biochemical; settings: 37°, 16 hours, pH 7.5, read-out: In vitro inhibitory activity IC50, Collagenase
Description: The samples were centrifuged to sediment undigested collagen, and an aliquot of the radioactive supernatant removed for assay on a scintillation counter as a measure of hydrolysis.

72 kDa Gelatinase = target: T1, 72 kDa Gelatinase (Homo sapiens, UniProt P08253); assay: Inhibition of 72 kDa gelatinase (14C-radiolabelled gelatin; Sellers et al); format: biochemical
T1 construct: endogenous in cells; host or cells: RPMI-7951 cells
T1 sequence (P08253 110-660): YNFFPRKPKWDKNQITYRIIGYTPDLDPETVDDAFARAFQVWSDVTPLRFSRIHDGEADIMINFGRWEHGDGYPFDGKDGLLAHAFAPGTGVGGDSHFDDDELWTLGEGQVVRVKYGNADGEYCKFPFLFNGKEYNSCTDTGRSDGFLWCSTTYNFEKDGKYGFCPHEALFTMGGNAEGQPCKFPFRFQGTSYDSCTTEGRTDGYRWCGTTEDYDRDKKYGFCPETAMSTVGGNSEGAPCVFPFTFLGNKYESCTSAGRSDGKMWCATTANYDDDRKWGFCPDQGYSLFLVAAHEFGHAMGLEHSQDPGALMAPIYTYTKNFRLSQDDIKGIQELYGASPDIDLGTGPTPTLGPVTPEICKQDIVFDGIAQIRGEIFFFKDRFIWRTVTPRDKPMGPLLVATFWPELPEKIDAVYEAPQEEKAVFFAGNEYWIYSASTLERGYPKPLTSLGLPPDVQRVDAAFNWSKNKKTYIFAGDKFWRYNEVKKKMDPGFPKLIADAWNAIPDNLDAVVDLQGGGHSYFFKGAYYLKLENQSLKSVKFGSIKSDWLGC

stromelysin [1] = target: T2, stromelysin (Homo sapiens, UniProt P08254); assay: biochemical
Description: (§1) The casein was acetylated ^14 C casein prepared by the method of Cawston et al (ibid).

stromelysin [2] = target: T2, stromelysin; settings: read-out: In vitro inhibitory activity IC50, Stromelsin; 14C acetylated casein, 37°, 16 hours, pH 7.5
Description: as §1

[3] = enzyme from RPMI-7951 cells, 14C gelatin, 37° C., 16 hours, read-out: In vitro inhibitory activity IC50, 72 kDa Gelatinase

T2 sequence (P08254 100-477): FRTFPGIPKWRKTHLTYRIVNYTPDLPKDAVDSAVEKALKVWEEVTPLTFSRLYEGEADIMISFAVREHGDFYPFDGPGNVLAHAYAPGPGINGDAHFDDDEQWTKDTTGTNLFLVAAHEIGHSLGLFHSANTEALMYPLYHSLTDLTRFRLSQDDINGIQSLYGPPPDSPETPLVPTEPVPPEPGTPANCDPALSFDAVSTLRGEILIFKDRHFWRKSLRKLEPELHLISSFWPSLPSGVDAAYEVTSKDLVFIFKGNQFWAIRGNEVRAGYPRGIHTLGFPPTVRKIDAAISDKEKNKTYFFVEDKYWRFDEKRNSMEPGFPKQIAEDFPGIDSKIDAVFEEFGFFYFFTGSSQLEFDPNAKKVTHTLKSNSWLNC

SMILES	IC50 (Collagenase) [nM]	IC50 (72 kDa Gelatinase) [nM]	IC50 (stromelysin [1]) [nM]	IC50 (72 kDa Gelatinase; [3]) [nM]	IC50 (stromelysin [2]) [nM]
CNC(=O)[C@H](Cc1ccccc1)NC(=O)[C@@H](CC(=O)NO)CC(C)C [Comparator 1, 5-Methyl-3R-(1S-methylcarbamoyl-2-phenylethylcarbamoyl)hexanohydroxamic acid, reference compound]	15	–	–	–	–
CNC(=O)[C@@H](NC(=O)[C@@H](CC(=O)NO)CC(C)C)C(C)(C)C [Comparator 3, 3R-(2,2-Dimethyl-1S-methylcarbamoyl-propylcarbamoyl)-5-methylhexanohydroxamic acid, reference compound]	10	8	700	–	–
CNC(=O)[C@H](Cc1ccccc1)NC(=O)[C@H](CC(C)C)[C@H](O)C(=O)NO [Comparator 4, 2S-Hydroxy-3R-(1S-methylcarbamoyl-2-phenylethylcarbamoyl)-5-methylhexanohydroxamic acid, reference compound]	15	–	200	3	–
CNC(=O)[C@H](CC(C)C)NC(=O)[C@H](CC(C)C)[C@H](O)C(=O)NO [Comparator 5, 2S-Hydroxy-3R-(1S-methylcarbamoyl-3-methyl-butylcarbamoyl)-5methylhexanohydroxamic acid, reference compound]	8	–	90	–	–
CC(C)C[C@H](CC(=O)NO)C(=O)N[C@@H](Cc1ccccc1)C(=O)Nc1ccccc1 [Example 1, 5-Methyl-3R-(2-phenyl-1S-phenylcarbamoylethylcarbamoyl)-hexanohydroxamic acid]	20	–	–	60	10
CC(C)C[C@H](CC(=O)NO)C(=O)N[C@H](C(=O)Nc1ccccc1)C(C)(C)C [Example 2, 3R-(2,2-Dimethyl-1S-phenylcarbamoyl-propylcarbamoyl)-5-methyl-hexanohydroxamic acid]	30	–	15	30	–
CC(C)C[C@H](CC(=O)NO)C(=O)N[C@H](C(=O)Nc1ccccn1)C(C)(C)C [Example 3, 3R-(2,2-Dimethyl-1S-pyridin-2-ylcarbamoyl-propylcarbamoyl)-5-methyl-hexanohydroxamic acid]	40	–	150	30	–
CC(C)C[C@@H](C(=O)N[C@H](C(=O)Nc1ccccc1)C(C)(C)C)[C@H](O)C(=O)NO [Example 4, 3R-(2,2-Dimethyl-1S-phenylcarbamoyl-propylcarbamoyl)-2S-hydroxy-5-methylhexanohydroxamic acid]	2	–	9	5	–
CC(C)C[C@H](NC(=O)[C@H](CC(C)C)[C@H](O)C(=O)NO)C(=O)Nc1ccc2ccccc2c1 [Example 5, 2S-Hydroxy-3R-(3-methyl-1S-napth-2-ylcarbamoyl-butylcarbamoyl)-5-methylhexanohydroxamic acid]	30	–	5	6	–
COc1ccc(NC(=O)[C@H](Cc2ccccc2)NC(=O)[C@H](CC(C)C)[C@H](O)C(=O)NO)cc1 [Example 6]	30	–	3	8	–
CC(C)C[C@@H](C(=O)N[C@H](C(=O)Nc1ccccn1)C(C)(C)C)[C@H](O)C(=O)NO [Example 8, 3R-(2,2-Dimethyl-1S-pyridin-2-ylcarbamoyl-propylcarbamoyl)-2S-hydroxy-5-methylhexanohydroxamic acid]	6	–	30	15	–
Cc1nc(NC(=O)[C@@H](NC(=O)[C@H](CC(C)C)[C@H](O)C(=O)NO)C(C)(C)C)sc1C [Example 17, 3R-(2,2-Dimethyl-1S-(4,5-dimethylthiazol-2-ylcarbamoyl)-propylcarbamoyl)-2S-hydroxy-5-methylhexanohydroxamic acid]	2	–	20	30	–
